# Target: hA2a/CHO (Homo sapiens (Human), UniProt P29274)
# Experiment: cAMP inhibition assay in hA2a/CHO cells, 10 μM adenosine;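 also: compounds added to cells 30 min ahead of adenosine, then a further 30 min at 37 °C with adenosine before cAMP detection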
# Format: cell-based
# Conditions: read-out: cAMP & FLIPR IC50 (nM) hA2a
# Experimental: hA2a/CHO, hA2b/CHO, hA3/CHO and mA2a/CHO (Genscript) were plated at 5×10^3 cells/well into 384-well polystyrene plates at the day of experiment. Compounds were pre-incubated with cells for 30 min at 37° C., 5% CO2. Then 10 μM adenosine was added to the cells and incubated for 30 min at 37° C., 5% CO2. Detection reagent (CISBIO) was added and the plates were incubated for 60 min at room temperature. The signal was captured by Envision.
# Sequence of hA2a/CHO (P29274 whole entry): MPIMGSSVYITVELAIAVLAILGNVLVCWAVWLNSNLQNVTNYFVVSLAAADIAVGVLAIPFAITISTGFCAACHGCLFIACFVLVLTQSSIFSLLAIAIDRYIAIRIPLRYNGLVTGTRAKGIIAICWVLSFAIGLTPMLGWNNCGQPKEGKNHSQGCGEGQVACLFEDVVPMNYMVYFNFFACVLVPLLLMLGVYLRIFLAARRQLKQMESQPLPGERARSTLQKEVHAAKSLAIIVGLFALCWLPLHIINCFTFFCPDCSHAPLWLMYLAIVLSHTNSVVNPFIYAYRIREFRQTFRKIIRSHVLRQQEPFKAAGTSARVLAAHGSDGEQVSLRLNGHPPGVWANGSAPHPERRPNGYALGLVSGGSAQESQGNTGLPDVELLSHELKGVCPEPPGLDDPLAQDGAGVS
row,Compound,IC50
1,"Cc1cnc2ccc(-c3nc(C(=O)NC(C)Cn4cncn4)c(N)nc3-c3ncco3)cn12 (racemic) [Example 306, rac-N-(1-(1H-1,2,4-triazol-1-yl)propan-2-yl)-3-amino-6-(3-methylimidazo [1,2-a]pyridin-6-yl)-5-(oxazol-2-yl) pyrazine-2-carboxamide]",14 nM
2,"COC1CCOC1CNC(=O)c1nc(-c2ccc3ncc(C)n3c2)c(-c2ncco2)nc1N (single isomer, unassigned) [Example 279, 3-amino-N-((3-methoxytetrahydrofuran-2-yl)methyl)-6-(3-methylimidazo[1,2-a]pyridin-6-yl)-5-(oxazol-2-yl)pyrazine-2-carboxamide]",1.4 nM
3,"COC1CCOC1CNC(=O)c1nc(-c2ccc3ncc(C)n3c2)c(-c2ncco2)nc1N (single isomer, unassigned) [Example 280, 3-amino-N-((3-methoxytetrahydrofuran-2-yl)methyl)-6-(3-methylimidazo[1,2-a]pyridin-6-yl)-5-(oxazol-2-yl)pyrazine-2-carboxamide]",0.6 nM
4,"Cc1cnc2ccc(-c3nc(C(=O)NCC4CCOC4)c(N)nc3-c3ccccn3)cn12 (single isomer, unassigned) [Example 304, 3-amino-6-[3-methylimidazo[1,2-a]pyridin-6-yl]-N-[[oxolan-3-yl]methyl]-5-(pyridin-2-yl)pyrazine-2-carboxamide]",8.2 nM
5,"Cc1cnc2ccc(-c3nc(C(=O)NCC4CCOC4)c(N)nc3-c3ccccn3)cn12 (single isomer, unassigned) [Example 305, 3-amino-6-[3-methylimidazo[1,2-a]pyridin-6-yl]-N-[[oxolan-3-yl]methyl]-5-(pyridin-2-yl)pyrazine-2-carboxamide]",12 nM
6,"COC1CCCC(NC(=O)c2nc(-c3ccc4ncc(C)n4c3)c(-c3ncco3)nc2N)C1 (single isomer, unassigned; isomer4) [Example 295, 3-amino-N-(3-methoxycyclohexyl)-6-(3-methylimidazo[1,2-a]pyridin-6-yl)-5-(oxazol-2-yl) pyrazine-2-carboxamide (isomer4)]",13 nM
7,"Cc1cnc2ccc(-c3nc(C(=O)NCC4CCCOC4)c(N)nc3-c3ncco3)cn12 (single isomer, unassigned; isomer 1) [Example 167, 3-amino-6-(3-methylimidazo[1,2-a]pyridin-6-yl)-5-(oxazol-2-yl)-N-((tetrahydro-2H-pyran-3-yl)methyl)pyrazine-2-carboxamide (isomer 1)]",1.2 nM
8,"Cc1cnc2ccc(-c3nc(C(=O)NCC4OCC4(C)C)c(N)nc3-c3ncco3)cn12 (single isomer, unassigned; isomer 1) [Example 288, 3-amino-N-((3,3-dimethyloxetan-2-yl)methyl)-6-(3-methylimidazo[1,2-a]pyridin-6-yl)-5-(oxazol-2-yl)pyrazine-2-carboxamide (isomer 1)]",0.6 nM
9,"COC1CCCC(NC(=O)c2nc(-c3ccc4ncc(C)n4c3)c(-c3ncco3)nc2N)C1 (single isomer, unassigned; isomer 1) [Example 292, 3-amino-N-(3-methoxycyclohexyl)-6-(3-methylimidazo[1,2-a]pyridin-6-yl)-5-(oxazol-2-yl)pyrazine-2-carboxamide (isomer 1)]",0.4 nM
10,"Cc1cnc2ccc(-c3nc(C(=O)NCC4CCCOC4)c(N)nc3-c3ncco3)cn12 (single isomer, unassigned; isomer 2) [Example 168, 3-amino-6-(3-methylimidazo[1,2-a]pyridin-6-yl)-5-(oxazol-2-yl)-N-((tetrahydro-2H-pyran-3-yl)methyl) pyrazine-2-carboxamide (isomer 2)]",1.1 nM
11,"Cc1cnc2ccc(-c3nc(C(=O)NCC4OCC4(C)C)c(N)nc3-c3ncco3)cn12 (single isomer, unassigned; isomer 2) [Example 289, 3-amino-N-((3,3-dimethyloxetan-2-yl)methyl)-6-(3-methylimidazo[1,2-a]pyridin-6-yl)-5-(oxazol-2-yl)pyrazine-2-carboxamide (isomer 2)]",1.9 nM
12,"COC1CCCC(NC(=O)c2nc(-c3ccc4ncc(C)n4c3)c(-c3ncco3)nc2N)C1 (single isomer, unassigned; isomer 2) [Example 293, 3-amino-N-(3-methoxycyclohexyl)-6-(3-methylimidazo[1,2-a]pyridin-6-yl)-5-(oxazol-2-yl)pyrazine-2-carboxamide (isomer 2)]",0.4 nM
13,"COC1CCCC(NC(=O)c2nc(-c3ccc4ncc(C)n4c3)c(-c3ncco3)nc2N)C1 (single isomer, unassigned; isomer 3) [Example 294, 3-amino-N-(3-methoxycyclohexyl)-6-(3-methylimidazo[1,2-a]pyridin-6-yl)-5-(oxazol-2-yl)pyrazine-2-carboxamide (isomer 3)]",0.2 nM
14,"Cc1cnc2ccc(-c3nc(C(=O)NCc4cccc(N5[C@@H]6CC[C@H]5CN(C)C6)n4)c(N)nc3-c3ncco3)cn12 [Cmpd. 172, 3-amino-N-[(6-[3-methyl-3,8-diazabicyclo[3.2.1]octan-8-yl]pyridin-2-yl)methyl]-6-[3-methylimidazo[1,2-a]pyridin-6-yl]-5-(1,3-oxazol-2-yl)pyrazine-2-carboxamide]",5.1 nM
15,"Cc1cnc2ccc(-c3nc(C(=O)NCc4cccc(N5CC6(CCN(C)C6)C5)n4)c(N)nc3-c3ncco3)cn12 [Cmpd. 175, 3-amino-N-((6-(6-methyl-2,6-diazaspiro[3.4]octan-2-yl)pyridin-2-yl)methyl)-6-(3-methylimidazo[1,2-a]pyridin-6-yl)-5-(oxazol-2-yl)pyrazine-2-carboxamide]",0.9 nM
16,"Cc1cnc2ccc(-c3nc(C(=O)NC[C@H]4CCCN4C)c(N)nc3-c3cccc(F)c3)cn12 [Cmpd. 231, (R)-3-amino-5-(3-fluorophenyl)-6-(3-methylimidazo[1,2-a]pyridin-6-yl)-N-((1-methylpyrrolidin-2-yl)methyl)pyrazine-2-carboxamide]",6.2 nM
17,"Cc1cnc2ccc(-c3nc(CNC(=O)[C@H]4CCCN4C)c(N)nc3-c3ccc(F)c(F)c3)cn12 [Cmpd. 257, (2R)—N-[[3-amino-5-(3,4-difluorophenyl)-6-[3-methylimidazo[1,2-a]pyridin-6-yl]pyrazin-2-yl]methyl]-1-methylpyrrolidine-2-carboxamide]",1.5 nM
18,"Cc1cnc2ccc(-c3nc(C(=O)NC[C@H]4CCCN4C)c(N)nc3-c3ccccc3)cn12 [Cmpd. 259, 3-amino-6-[3-methylimidazo[1,2-a]pyridin-6-yl]-N-[[(2R)-1-methylpyrrolidin-2-yl]methyl]-5-phenylpyrazine-2-carboxamide]",3.7 nM
19,"Cc1cnc2ccc(-c3nc(C(=O)NC[C@H]4CCCN4C)c(N)nc3-c3ccc(F)c(F)c3)cn12 [Cmpd. 272, 3-amino-5-(3,4-difluorophenyl)-6-[3-methylimidazo[1,2-a]pyridin-6-yl]-N-[[(2R)-1-methylpyrrolidin-2-yl]methyl]pyrazine-2-carboxamide]",37 nM
20,"Cc1cnc2ccc(-c3nc(C(=O)NCc4cccc(N5[C@@H]6C[C@H]5CN(C)C6)n4)c(N)nc3-c3ncco3)cn12 [Example 174, 3-amino-N-((6-(3-methyl-3,6-diazabicyclo[3.1.1]heptan-6-yl)pyridin-2-yl)methyl)-6-(3-methylimidazo[1,2-a]pyridin-6-yl)-5-(oxazol-2-yl)pyrazine-2-carboxamide]",6.9 nM
21,"Cc1cnc2ccc(-c3nc(C(=O)NCC(C)(C)C(=O)N(C)C)c(N)nc3-c3ncco3)cn12 [Example 281, 3-[(3-amino-6-[3-methylimidazo[1,2-a]pyridin-6-yl]-5-(1,3-oxazol-2-yl)pyrazin-2-yl)formamido]-N,N,2,2-tetramethylpropanamide]",0.3 nM
22,"Cc1cnc2ccc(-c3nc(C(=O)NCc4cccc(N5C[C@H]6C[C@@H]5CN6C)n4)c(N)nc3-c3ncco3)cn12 [Example 282, 3-amino-N-((6-((1R,4R)-5-methyl-2,5-diazabicyclo[2.2.1]heptan-2-yl)pyridin-2-yl)methyl)-6-(3-methylimidazo[1,2-a]pyridin-6-yl)-5-(oxazol-2-yl) pyrazine-2-carboxamide]",4.5 nM
23,"Cc1cnc2ccc(-c3nc(C(=O)NCc4cccc(N5C[C@@H]6C[C@H]5CN6C)n4)c(N)nc3-c3ncco3)cn12 [Example 283, 3-amino-N-((6-((lS,4S)-5-methyl-2,5-diazabicyclo[2.2.1]heptan-2-yl)pyridin-2-yl)methyl)-6-(3-methylimidazo[1,2-a]pyridin-6-yl)-5-(oxazol-2-yl)pyrazine-2-carboxamide]",3.4 nM
24,"Cc1cnc2ccc(-c3nc(C(=O)NCc4cccc(N5CC6(CN(C)C6)C5)n4)c(N)nc3-c3ncco3)cn12 [Example 284, 3-amino-N-[(6-[6-methyl-2,6-diazaspiro[3.3]heptan-2-yl]pyridin-2-yl)methyl]-6-[3-methylimidazo[1,2-a]pyridin-6-yl]-5-(1,3-oxazol-2-yl)pyrazine-2-carboxamide]",0.7 nM
25,"Cc1cnc2ccc(-c3nc(C(=O)NCc4cccc(N5CCN(C)[C@H](C)C5)n4)c(N)nc3-c3ncco3)cn12 [Example 285, 3-amino-N-([6-[(3R)-3,4-dimethylpiperazin-1-yl]pyridin-2-yl]methyl)-6-[3-methylimidazo[1,2-a]pyridin-6-yl]-5-(1,3-oxazol-2-yl)pyrazine-2-carboxamide]",4.5 nM
26,"Cc1cnc2ccc(-c3nc(C(=O)NCc4cccc(N5CCN(C)[C@@H](C)C5)n4)c(N)nc3-c3ncco3)cn12 [Example 286, (S)-3-amino-N-((6-(3,4-dimethylpiperazin-1-yl)pyridin-2-yl)methyl)-6-(3-methylimidazo[1,2-a]pyridin-6-yl)-5-(oxazol-2-yl)pyrazine-2-carboxamide]",3.2 nM
27,"Cc1cnc2ccc(-c3nc(C(=O)NCc4cccc(N5CCN(C)C[C@@H]5C)n4)c(N)nc3-c3ncco3)cn12 [Example 287-2, (S)-3-amino-N-((6-(2,4-dimethylpiperazin-1-yl)pyridin-2-yl)methyl)-6-(3-methylimidazo[1,2-a]pyridin-6-yl)-5-(oxazol-2-yl)pyrazine-2-carboxamide]",4.4 nM
28,"Cc1cnc2ccc(-c3nc(CNC(=O)[C@H]4CCCN4C)c(N)nc3-n3nccn3)cn12 [Example 290, (2R)—N-[(3-amino-6-[3-methylimidazo[1,2-a]pyridin-6-yl]-5-(2H-1,2,3-triazol-2-yl)pyrazin-2-yl)methyl]-1-methylpyrrolidine-2-carboxamide]",5.8 nM
